The test system of one assay is Pyricularia orzae. Put plainly: whole plant or invertebrate. It is filed as in vivo, Pyricularia orzae (rice plant, Chukyo Asahi). Conditions: in Oryza sativa, 120 h, read-out: Protective value.
In a further assay the test system is Rhizoctonia solani. Put plainly: whole plant or invertebrate. In kind it is in vivo, Rhizoctonia solani (rice plant, Chukyo Asahi). Conditions: in Oryza sativa, 120 h, read-out: Preventive value.
The test system of another assay is Sphaerotheca fuliginea. Put plainly: whole plant or invertebrate. In kind it is in vivo, Sphaerotheca fuliginea (cucumber plant, Suyo). Conditions: Podosphaera fuliginea, in Cucumis sativus, 240 h; read-out: Protective value.
The subject of assay [1] is Aspergillum flavus IFO 6343. Put plainly: Test 8: MIC by agar dilution process. It is filed as cell-based. Conditions: 168 h; Sabouraud's agar medium; 1 week. Here is the method:
(§1) Each minimum growth inhibition concentration (MIC) of Compound No. 16 to various microorganisms was measured by the agar dilution process. In the cases of bacteria, the results were observed 24 hours after the inoculation and in the cases of fungi, the results were observed 1 week after the inoculation.
A general note: In agar dilution the substance is mixed into plates at graded concentrations.

The subject of assay [2] is Aspergillum fumigatus IFO 4057. Put plainly: Test 8: MIC by agar dilution process. It is filed as cell-based. Conditions: 168 h; Sabouraud's agar medium; 1 week. Here is the method:
as §1

The test system of assay [3] is Aspergillum niger IFO 6341. Put plainly: Test 8: MIC by agar dilution process. Conditions: 168 h; Sabouraud's agar medium; 1 week. In kind it is cell-based. Here is the method:
as §1

The subject of assay [4] is Aureobasidium pullulans IFO 6353. Put plainly: Test 8: MIC by agar dilution process. Conditions: IFO6353, 168 h, Sabouraud's agar medium, 1 week. In kind it is cell-based. Here is the method: as §1
Another assay has as its system Bacillus subtilis PC1219. Put plainly: Test 8: MIC by agar dilution process. It is filed as cell-based. Conditions: Bouillon agar medium, 24 hours. Here is the method: as §1
In assay [5] the test system is Chaetomium globosum IFO 6347. Put plainly: Test 8: MIC by agar dilution process. It is filed as cell-based. Conditions: IFO6347, 168 h, Sabouraud's agar medium, 1 week. Here is the method: as §1
Another assay concerns Escherichia coli. Put plainly: Test 8: MIC by agar dilution process. It is filed as cell-based. Conditions: Bouillon agar medium, 24 hours. Here is the method: as §1
For assay [6], the system named is Gibberella fujikuroi IFO 6349. Put plainly: Test 8: MIC by agar dilution process. In kind it is cell-based. Conditions: Fusarium fujikuroi, IFO6349, 168 h; Sabouraud's agar medium; 1 week. Here is the method:
as §1

Assay [7] relates to Gliocladium virens IFO 9166. Put plainly: Test 8: MIC by agar dilution process. Conditions: Trichoderma virens, IFO9166, 168 h; Sabouraud's agar medium; 1 week. It is filed as cell-based. Here is the method: as §1
The subject of assay [8] is Klebsiella pneumoniae IFO 3512. Put plainly: Test 8: MIC by agar dilution process. In kind it is cell-based. Conditions: IFO3512, Bouillon agar medium, 24 hours. Here is the method: as §1
Assay [9] deals with Myrothecium verrucaria IFO 6133. Put plainly: Test 8: MIC by agar dilution process. In kind it is cell-based. Conditions: Albifimbria verrucaria, IFO6133, 168 h; Sabouraud's agar medium; 1 week. Here is the method:
as §1

Assay [10] has as its system Penicillium chrysogeum IFO 4626. Put plainly: Test 8: MIC by agar dilution process. In kind it is cell-based. Conditions: IFO4626, 168 h, Sabouraud's agar medium, 1 week. Here is the method:
as §1

For assay [11], the system named is Penicillium citrium IFO 6352. Put plainly: Test 8: MIC by agar dilution process. It is filed as cell-based. Conditions: IFO6352, 168 h, Sabouraud's agar medium, 1 week. Here is the method:
as §1

The subject of assay [12] is Penicillium funiculosum IFO 6354. Put plainly: Test 8: MIC by agar dilution process. It is filed as cell-based. Conditions: Talaromyces funiculosus, IFO6354, 168 h; Sabouraud's agar medium; 1 week. Here is the method:
as §1

The subject of the next assay is Penicillium italicum. Put plainly: Test 8: MIC by agar dilution process. In kind it is cell-based. Conditions: 168 h, Sabouraud's agar medium, 1 week. Here is the method: as §1
Assay [13] concerns Proteus morganii IFO 3848. Put plainly: Test 8: MIC by agar dilution process. It is filed as cell-based. Conditions: Morganella morganii, IFO3848; Bouillon agar medium; 24 hours. Here is the method: as §1
In the next assay the test system is Pseudomonas aeruginosa. Put plainly: Test 8: MIC by agar dilution process. In kind it is cell-based. Conditions: Bouillon agar medium, 24 hours. Here is the method:
as §1

The test system of assay [14] is Salmonella typhimurium IFO 12529. Put plainly: Test 8: MIC by agar dilution process. It is filed as cell-based. Conditions: Salmonella enterica; Bouillon agar medium; 24 hours. Here is the method:
as §1

Assay [15] concerns Serratia marcescens IFO 12648. Put plainly: Test 8: MIC by agar dilution process. It is filed as cell-based. Conditions: IFO12648, Bouillon agar medium, 24 hours. Here is the method:
as §1

Assay [16] relates to Staphylococcus aureus 209P. Put plainly: Test 8: MIC by agar dilution process. In kind it is cell-based. Conditions: Bouillon agar medium, 24 hours. Here is the method:
as §1

In a further assay the test system is Trametes sanguinea. Put plainly: Test 8: MIC by agar dilution process. It is filed as cell-based. Conditions: 168 h, Sabouraud's agar medium, 1 week. Here is the method:
as §1

The next assay concerns Botrytis cinerea. Put plainly: Test 9: protective value on cucumber inoculated with Botrytis cinerea. It is filed as in vivo, Botrytis cinerea (cucumber plant, Suyo). Conditions: 72 h; for pest or weed control at 250 ppm: 10 ml sprayed, lesion length three days after inoculation. Put shortly: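 Cucumber at one-leaf stage sprayed with active ingredient at 250 ppm, kept in a greenhouse at 24–25 °C for one day, then inoculated with a PDA-grown Botrytis cinerea agar disc. Lesion length measured 3 days after inoculation and converted to protective value; some comparisons used lower concentrations.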

The test system of assay [17] is Collectotrichum lagenarium. Put plainly: Test 3: protective value on cucumber inoculated with Collectotrichum lagenarium. In kind it is in vivo, Collectotrichum lagenarium (cucumber plant, Suyo). Conditions: 500 ppm, 10 ml sprayed; lesions six days after inoculation. Here is the method: In each unglazed pot having a diameter of 9 cm, cucumber plant (Suyo) was cultured. At one leaf stage, 10 ml. of each solution of each active ingredient having a concentration of 500 ppm was sprayed by a spray gun. After maintaining the pot in a green-house at 24° to 25° C. for one day, each spore suspension of Collectotrichum lagenarium was sprayed. Six days after the inoculation, number of lesions on the first leaf of seedling was observed. The protective value was calculated as Test 1.

Another assay has as its system Phytophthora infestans. In kind it is cell-based. Conditions: PDA medium; fungus A: Phytophthora infestans.
The subject of the next assay is Alternaria solani. Put plainly: Test 5: minimum growth inhibition concentration on PDA medium. Conditions: fungus C: Alternaria solani. In kind it is cell-based. Here is the method:
(§2) A mixture of 9 ml. of a potato-glucose-agar medium (PDA medium) and 1 ml. of each active ingredient was poured into each Petri-dish to be solidified. […] The following fungi were used.

The next assay has as its system Diaporthe citri. The description is as above. In kind it is cell-based. Conditions: fungus B: Diaporthe citri. Here is the method: as §2
The next assay relates to Venturia inaequalie. The description is as above. In kind it is cell-based. Conditions: fungus D: Venturia inaequalie. Here is the method:
as §2

For a further assay, the system named is Tetranychus telarius (L). Put plainly: Test 6: mortality of larvae and adults of Tetranychus telarius on kidney bean leaf. In kind it is in vivo. Conditions: foliar, 72 h, leaf dipped, wettable powder of Composition No. 5, three days after treatment, read-out: Percent mortality.
Another assay has as its system Callosobruchus chinensis. Put plainly: Test 7: mortality of adults of Callosobruchus chinensis on film in Petri-dish. It is filed as in vivo. Conditions: 400 μg per Petri-dish of 9 cm, 25° C., 24 hours, read-out: Percent mortality. Here is the method: Each active ingredient was dissolved in acetone to prepare each solution having the specific concentration. 1 Ml. of the solution (400 μg. of each active ingredient) was uniformly adhered on the inner bottom surface of Petri-dish having a diameter of 9 cm to form a film. In the dish, 15 of adults of Callosobruchus chinensis were charged and the dish was covered with a cap and kept in a constant temperature chamber at 25° C. for 24 hours. Each percent mortality was calculated as that of Test 6.

Another assay concerns Plasmopara viticola. Put plainly: whole plant or invertebrate. In kind it is in vivo, Plasmopara viticola (cucumber plant, Suyo). Conditions: in Cucumis sativus, 144 h, read-out: Protective value.
The next assay relates to Plutella xylostella. Put plainly: Test 11: mortality of larvae of Plutella xylostella on treated cabbage leaf. It is filed as in vivo. Conditions: foliar, 192 h, leaf dipped, emulsifiable concentrate Composition No. 3, eight days, read-out: Percent mortality. The source says:
Each emulsifiable concentrate of each active ingredient as Composition No. 3 was dispersed in water at a concentration of 800 ppm. Each leaf of cabbage was dipped into each emulsion for about 10 seconds and taken up and dried in air.
A wet filter paper was put in each Petri dish (diameter of 9 cm), and each treated leaf was put on the filter paper. Larvae of Plutella xylostella at 2nd to 3rd instar were charged and the dish was covered with a cap and kept in a constant temperature chamber with lighting at 28° C. Eight days after the charge, mortality was measured and each percent mortality was calculated.

In brackets after ≈: the same amount, converted by molar mass.

As for `O=[N+]([O-])c1cc(C(F)(F)F)c(Cl)c([N+](=O)[O-])c1Nc1c(Cl)cncc1Cl` [Compound No. 16], the pest or weed control at 100 ppm with Pyricularia orzae and in the assay with Rhizoctonia solani was 100% each time. Further, in the assay with Sphaerotheca fuliginea, the pest or weed control at 500 ppm is 100%. Further, the MIC in [1] is 6.25 µg/mL (≈ 14.5 µM); in assay [2], 6.25 µg/mL (≈ 14.5 µM); in [3], 3.12 µg/mL (≈ 7.23 µM); in assay [4] it was 6.25 µg/mL (≈ 14.5 µM); against Bacillus subtilis PC1219, less than 0.2 µg/mL; in assay [5] it was 3.12 µg/mL (≈ 7.23 µM). Moreover, the MIC in the assay on Escherichia coli was found to be 12.5 µg/mL (≈ 29 µM); in assay [6] it was 12.5 µg/mL (≈ 29 µM); in assay [7] it was 12.5 µg/mL (≈ 29 µM); in assay [8], 12.5 µg/mL (≈ 29 µM); in [9] it was 6.25 µg/mL (≈ 14.5 µM); in assay [10], 3.12 µg/mL (≈ 7.23 µM). Also, the MIC in [11] is 6.25 µg/mL (≈ 14.5 µM); in [12] it was 6.25 µg/mL (≈ 14.5 µM); against Penicillium italicum, 3.12 µg/mL (≈ 7.23 µM); in assay [13] it was 6.25 µg/mL (≈ 14.5 µM); against Pseudomonas aeruginosa, 12.5 µg/mL (≈ 29 µM); in assay [14], 6.25 µg/mL (≈ 14.5 µM). The minimal inhibitory concentration (MIC) was 6.25 µg/mL (≈ 14.5 µM) in [15], less than 0.2 µg/mL in assay [16] and 6.25 µg/mL (≈ 14.5 µM) against Trametes sanguinea. Moreover, in the assay with Botrytis cinerea, the pest or weed control at 250 ppm amounted to 100%.

Regarding `O=[N+]([O-])c1cc(C(F)(F)F)cc([N+](=O)[O-])c1Nc1ncc(Cl)cc1Cl` [compound 3, N-(3,5-dichloro-2-pyridyl)-2,6-dinitro-4-trifluoromethylaniline], the pest or weed control at 100 ppm in the assay with Pyricularia orzae and with Rhizoctonia solani was 100% each time. The molecule further returned a Protective value in assay [17] of 100%. The pest or weed control at 500 ppm with Sphaerotheca fuliginea came to 100%. Further, the “minimum growth inhibition concentration” value was 100 in the assay on Phytophthora infestans, 10 in the assay on Alternaria solani, 100 with Diaporthe citri and less than 1 in the assay with Venturia inaequalie. In addition, the mortality at 800 ppm in the assay with Tetranychus telarius (L) worked out at 100%. Further, the mortality at 400 µg/dish with Callosobruchus chinensis is 100%.

Turning to `O=[N+]([O-])c1cc(C(F)(F)F)c(Cl)c([N+](=O)[O-])c1Nc1ncc(C(F)(F)F)cc1Cl` [Compound No. 7, N-(3-chloro-5-trifluoromethyl-2-pyridyl)-2,6-dinitro-3-chloro-4-trifluoromethylaniline], the pest or weed control at 12.5 ppm in the assay with Pyricularia orzae is 98%. In the assay on Pyricularia orzae, the pest or weed control at 25 ppm was 100%. Moreover, the pest or weed control at 100 ppm in the assay with Pyricularia orzae and with Rhizoctonia solani was 100% throughout. This molecule came in with a Protective value in assay [17] of 100%. Also, the pest or weed control at 500 ppm with Sphaerotheca fuliginea and with Plasmopara viticola was 100% in each case. Also, the “minimum growth inhibition concentration” value in the assay on Phytophthora infestans is 100; with Alternaria solani, less than 1; in the assay with Diaporthe citri, less than 1; in the assay on Venturia inaequalie, less than 1. Further, the pest or weed control at 62.5 ppm in the assay with Botrytis cinerea (62.5 ppm) was 100%. In addition, the pest or weed control at 250 ppm with Botrytis cinerea is 100%. Besides, in the assay with Plutella xylostella, the mortality at 800 ppm amounted to 100%.

Take `O=[N+]([O-])c1cc(C(F)(F)F)c(Cl)c([N+](=O)[O-])c1Nc1ncc(Cl)cc1Cl` [compound 4, N-(3,5-dichloro-2-pyridyl)-2,6-dinitro-3-chloro-4-trifluoromethylaniline]: the figures for the pest or weed control at 100 ppm with Pyricularia orzae and in the assay with Rhizoctonia solani were 100% and 93%, respectively. In assay [17], this molecule displayed a Protective value of 100%. Besides, the “minimum growth inhibition concentration” value in the assay on Phytophthora infestans is more than 100; in the assay with Alternaria solani it was 100; in the assay with Diaporthe citri, 100; with Venturia inaequalie, less than 1. In addition, the pest or weed control at 500 ppm in the assay on Plasmopara viticola was found to be 100%.

As usually defined, the MIC is the lowest concentration that inhibits growth of the organism. A low value points to greater potency. As usually defined, the mortality is the percentage killed.

The values above are taken from patent US4331670A (priority 1979, dated 1982).
